By inhibition is commonly meant the share of the control response that was lost under treatment. A lower inhibition goes with little suppression. What is called IC50 is the concentration that gives 50% inhibition.

Data set [1] is described as follows: Fraction unbound in human plasma at 30 to 1000 ng/ml after 2 to 6 hrs by LC-MS/MS based rapid equilibrium dialysis method. The data set is classed as ADME, cell-free. Background: In equilibrium dialysis only unbound substance equilibrates across the membrane.
The nature of data set [2]: Plasma concentration in human cardiac arrhythmia model. The data set is classed as ADME, cell-free.
The target of another data set is hERG (KCNH2) (Homo sapiens, UniProt Q12809). The experiment in a line: Inhibition of human ERG expressed in HEK293 cells at 30 nM at holding potential of -80 mV by whole cell patch clamp assay relative to control. As to conditions: HEK293 cells expressing human ERG. The data set is classed as cell-based.
Chain of hERG (KCNH2) (Q12809 whole entry): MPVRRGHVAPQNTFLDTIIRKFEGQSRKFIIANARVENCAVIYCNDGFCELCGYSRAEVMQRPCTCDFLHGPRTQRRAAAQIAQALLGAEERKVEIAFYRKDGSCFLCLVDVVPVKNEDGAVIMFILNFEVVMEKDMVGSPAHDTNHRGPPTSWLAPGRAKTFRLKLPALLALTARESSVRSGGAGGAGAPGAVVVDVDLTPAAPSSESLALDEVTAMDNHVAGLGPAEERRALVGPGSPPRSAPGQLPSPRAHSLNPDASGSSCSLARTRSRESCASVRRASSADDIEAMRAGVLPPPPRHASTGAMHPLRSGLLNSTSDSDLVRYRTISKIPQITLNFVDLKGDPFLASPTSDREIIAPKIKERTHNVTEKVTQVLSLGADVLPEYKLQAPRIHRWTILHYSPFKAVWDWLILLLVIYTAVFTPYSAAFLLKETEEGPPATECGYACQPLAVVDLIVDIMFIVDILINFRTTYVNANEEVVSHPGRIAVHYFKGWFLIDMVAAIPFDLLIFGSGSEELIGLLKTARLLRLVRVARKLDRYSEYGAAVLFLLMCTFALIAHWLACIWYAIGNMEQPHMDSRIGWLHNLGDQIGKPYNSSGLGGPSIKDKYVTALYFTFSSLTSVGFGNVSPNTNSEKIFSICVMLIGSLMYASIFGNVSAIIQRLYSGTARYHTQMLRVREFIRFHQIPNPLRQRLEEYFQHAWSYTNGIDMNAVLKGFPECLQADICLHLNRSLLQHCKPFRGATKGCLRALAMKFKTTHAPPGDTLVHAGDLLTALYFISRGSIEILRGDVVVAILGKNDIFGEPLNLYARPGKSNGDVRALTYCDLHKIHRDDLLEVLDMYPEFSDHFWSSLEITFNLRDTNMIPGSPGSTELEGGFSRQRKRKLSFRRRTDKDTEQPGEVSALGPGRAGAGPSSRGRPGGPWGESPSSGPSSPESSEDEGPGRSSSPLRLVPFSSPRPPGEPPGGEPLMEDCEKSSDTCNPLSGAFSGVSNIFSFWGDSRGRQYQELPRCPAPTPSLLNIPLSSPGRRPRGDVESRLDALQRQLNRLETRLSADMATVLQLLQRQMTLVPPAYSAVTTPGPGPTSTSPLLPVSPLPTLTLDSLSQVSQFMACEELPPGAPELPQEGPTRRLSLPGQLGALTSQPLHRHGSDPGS
Data set [3] deals with T1, KvLQT1/minK (Kv7.1/minK) potassium channel (Homo sapiens, UniProt P51787+Q8N4C8). The experiment in a line: Inhibition of human KvLQT1/minK channel expressed in CHO cells at 1 uM at holding potential of -80 mV by whole cell patch clamp assay relative to control. The data set is classed as cell-based. The conditions noted are these: CHO cells expressing human KvLQT1/minK channel. On the technique in general: In patch-clamp work, channel activity is measured electrically.
T1 sequence (P51787 whole entry): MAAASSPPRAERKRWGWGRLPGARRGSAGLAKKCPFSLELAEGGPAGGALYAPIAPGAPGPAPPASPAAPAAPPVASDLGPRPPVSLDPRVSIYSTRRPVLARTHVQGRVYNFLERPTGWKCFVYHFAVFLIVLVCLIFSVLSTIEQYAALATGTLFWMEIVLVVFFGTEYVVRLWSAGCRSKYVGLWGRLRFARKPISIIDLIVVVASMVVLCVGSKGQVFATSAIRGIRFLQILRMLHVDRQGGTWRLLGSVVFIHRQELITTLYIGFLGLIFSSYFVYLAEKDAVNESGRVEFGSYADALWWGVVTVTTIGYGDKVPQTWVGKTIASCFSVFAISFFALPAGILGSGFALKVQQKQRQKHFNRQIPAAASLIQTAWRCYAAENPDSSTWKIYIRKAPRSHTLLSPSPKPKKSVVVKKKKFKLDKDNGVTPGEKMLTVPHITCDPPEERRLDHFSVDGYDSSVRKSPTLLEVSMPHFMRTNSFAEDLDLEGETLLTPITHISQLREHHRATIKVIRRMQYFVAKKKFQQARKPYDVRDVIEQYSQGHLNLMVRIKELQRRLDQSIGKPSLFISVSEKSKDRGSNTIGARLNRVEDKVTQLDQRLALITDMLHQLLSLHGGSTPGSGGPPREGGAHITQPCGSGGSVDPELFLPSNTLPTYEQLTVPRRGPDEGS
T1 sequence (Q8N4C8 whole entry): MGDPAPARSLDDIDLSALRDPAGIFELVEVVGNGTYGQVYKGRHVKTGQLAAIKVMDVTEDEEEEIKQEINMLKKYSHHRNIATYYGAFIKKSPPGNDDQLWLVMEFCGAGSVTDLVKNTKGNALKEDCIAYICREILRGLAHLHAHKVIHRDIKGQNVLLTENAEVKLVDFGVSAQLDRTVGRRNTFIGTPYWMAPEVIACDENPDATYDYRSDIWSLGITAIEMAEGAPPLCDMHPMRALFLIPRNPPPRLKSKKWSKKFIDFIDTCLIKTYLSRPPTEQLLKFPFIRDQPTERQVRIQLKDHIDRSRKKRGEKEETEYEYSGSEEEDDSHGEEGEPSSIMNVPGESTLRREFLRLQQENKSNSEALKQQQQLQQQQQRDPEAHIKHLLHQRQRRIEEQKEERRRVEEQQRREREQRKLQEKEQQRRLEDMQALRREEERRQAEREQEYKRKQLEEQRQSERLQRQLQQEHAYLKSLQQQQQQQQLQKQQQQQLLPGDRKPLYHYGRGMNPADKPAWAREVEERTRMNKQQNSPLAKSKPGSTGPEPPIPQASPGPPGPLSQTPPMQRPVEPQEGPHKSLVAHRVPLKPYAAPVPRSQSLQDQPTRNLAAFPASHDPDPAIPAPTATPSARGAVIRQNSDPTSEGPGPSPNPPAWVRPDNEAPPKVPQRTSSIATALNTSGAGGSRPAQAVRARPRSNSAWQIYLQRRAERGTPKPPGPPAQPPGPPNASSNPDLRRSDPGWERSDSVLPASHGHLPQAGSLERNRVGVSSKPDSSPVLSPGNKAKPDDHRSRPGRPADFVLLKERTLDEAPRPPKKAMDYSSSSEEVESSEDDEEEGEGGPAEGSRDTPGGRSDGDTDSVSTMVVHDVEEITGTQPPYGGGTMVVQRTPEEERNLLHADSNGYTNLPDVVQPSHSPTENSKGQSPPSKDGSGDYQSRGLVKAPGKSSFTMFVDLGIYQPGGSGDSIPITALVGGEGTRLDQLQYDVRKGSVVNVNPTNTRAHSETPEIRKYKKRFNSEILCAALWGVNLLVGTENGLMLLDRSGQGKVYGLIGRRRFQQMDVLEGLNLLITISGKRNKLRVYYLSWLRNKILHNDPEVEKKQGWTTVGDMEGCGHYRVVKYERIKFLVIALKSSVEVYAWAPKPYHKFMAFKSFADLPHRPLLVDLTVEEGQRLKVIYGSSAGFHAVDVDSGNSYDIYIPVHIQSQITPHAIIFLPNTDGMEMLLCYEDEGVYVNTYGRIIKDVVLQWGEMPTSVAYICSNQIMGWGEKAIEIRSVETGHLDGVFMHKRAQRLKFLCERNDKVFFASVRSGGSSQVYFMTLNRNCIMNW

A short description of data set [4]: Protein binding to human plasma at 30 to 1000 ng/ml after 2 to 6 hrs by LC-MS/MS based rapid equilibrium dialysis method. The class given is ADME, cell-free. As to conditions: read-out: PPB (converted).
Data set [5] deals with T1, KvLQT1/minK (Kv7.1/minK) potassium channel. The experiment in a line: Inhibition of human KvLQT1/minK channel expressed in CHO cells at 10 uM at holding potential of -80 mV by whole cell patch clamp assay relative to control. As to conditions: CHO cells expressing human KvLQT1/minK channel. The class given is cell-based.
Data set [6] deals with T2, Voltage-gated inwardly rectifying potassium channel KCNH2 (Homo sapiens, UniProt Q12809). The experiment in a line: Inhibition of human ERG expressed in HEK293 cells at holding potential of -80 mV by whole cell patch clamp assay. The data set is classed as cell-based.
T2 sequence (Q12809 whole entry): as the sequence (Q12809 whole entry) above
Data set [7] addresses Sodium channel protein type 5 subunit alpha (Homo sapiens, UniProt Q14524). Put plainly: Inhibition of human Nav1.5 channel expressed in HEK293 cells at holding potential of -70 mV by whole cell patch clamp assay. The data set is classed as cell-based.
Data set [8] has as its target T2, Voltage-gated inwardly rectifying potassium channel KCNH2. Put plainly: Inhibition of human ERG expressed in HEK293 cells by patch clamp assay. The data set is classed as cell-based.

On to `CNC(=O)C(CCN1CCC(O)(c2ccc(Cl)cc2)CC1)(c1ccccc1)c1ccccc1`, for which the Cp(f) in [1] is 48 to 54 nM. Besides, in data set [2], the Cp fell in the range of 560 to 630 ng/mL. The inhibition at 0.03 µM at hERG (KCNH2) stood at 5.9%. Also, the inhibition at 1 µM in [3] is 4%. Besides, in data set [4], the fraction unbound was 0.043. In data set [5], this compound had an inhibition at 10 µM of 23%. For the same compound, the IC50 in [6] worked out at 0.245 µM; in data set [7], 0.483 µM.

In turn, `CN(C)C(=O)C(CCN1CCC(O)(c2ccc(Cl)cc2)CC1)(c1ccccc1)c1ccccc1` [LOPERAMIDE] returned a Cp(f) in [1] of 6.3 to 10 nM. Moreover, the Cp in data set [2] lay within 76 to 120 ng/mL. Besides, the inhibition at 1 µM in data set [3] turned out to be 17%. Moreover, the fraction unbound in [4] is 0.03 to 0.05. For the same compound, the inhibition at 10 µM in [5] worked out at 65%. For the same compound, the “inhibition (INH)” value in data set [8] is listed as 20%. Besides, the IC50 in data set [7] was 0.239 µM.

For the origin of these results see ChEMBL document CHEMBL4184096 (Bioorg Med Chem Lett, 2018).
